Laboratory results from US10842801B2, “Optimizing mifepristone absorption” (Corcept Therapeutics, Inc., priority 2011, dated 2020).
Where two headings read alike, the source gives them in different places.

What was measured:
[1] = Plasma drug concentration in different patients given the same dose of mifepristone; assay type: in vivo, human
[2] = Food effect studies: pharmacokinetics of mifepristone under fasting and fed conditions; assay type: in vivo, human; details: for AUC(0-inf) / Cmax / AUC(0-t): human, plasma, oral; for AUC(0-inf): read-out: AUCinf Geo Mean; for Cmax: read-out: Cmax Geo Mean; for AUC(0-t): read-out: AUC0-24 Geo Mean
Protocol: Blood is collected from a patient in a vacutainer containing sodium heparin. The blood is centrifuged and the resulting plasma frozen at an appropriate temperature until assay. In some embodiments, the temperature is about -70° C. In other embodiments, other blood components can be collected and stored. Prior to analysis, the plasma is thawed and a fraction of the plasma is mixed with an internal standard in a solvent such as acetonitrile, to obtain a fixed concentration of the standard. In some embodiments, the internal standard can be mifepristone-d4. […] Base is then added to the sample solution. The base can be any amine or ammonium base, such as ammonium hydroxide. […] Solvent is then added to the solution and the mifepristone (along with the internal standard) are extracted from the plasma. […] Following separation and concentration of the organic layer, the sample is reconstituted in a solvent mixture comprising water, acetonitrile and formic acid. The ratio of the solvent components can vary. In some embodiments, the solvent mixture is water:acetonitrile:formic acid (75:25:0.1, v/v/v). […] The sample can then be analyzed by reverse-phase high pressure liquid chromatography (HPLC). In some embodiments, the reverse-phase HPLC is performed using a water:acetonitrile:formic acid (60:40:0.1) mobile phase (isocratic) at a flow rate of 0.3 mL/min. […] The reverse-phase HPLC column can be a phenyl column maintained at 50° C. […] Following elution, the mobile phase can be nebulized using heated nitrogen in a Z-spray source/interface and the ionized compounds detected using a tandem quadrupole mass spectrometer. Mifepristone (molecular weight of 430 g/mol) can be detected at m/z 372.30. The internal standard mifepristone-d4 can be detected at m/z 376.30. The ratio of the mifepristone peak height to the peak height for the internal standard can then be calculated. The plasma concentration of mifepristone is then calculated by comparing the experimental ratio to a standard curve of mifepristone:mifepristone-d4 peak height ratio v. mifepristone concentration. […] In all studies, healthy adults were randomized to a sequence of administration of mifepristone drug product under fasting and fed conditions. […] The test group was comprised of 10 healthy adult subjects who were randomized to receive mifepristone at 600 mg/day for up to 14 days in Cohort 3 of Study CORT-108297-102. For this comparison the PK data after 7 days of dosing were used. […] The meal was given every day at approximately 30 min prior to receiving mifepristone, which was dosed as two 300 mg tablets once daily.

[3] = 600 mg single dose, Fed (50% fat) vs Fast, Study 12
[4] = 600 mg/day for 7 days following a breakfast of 34% fat, Day 7
[5] = 600 mg/day x 7 days, Fed (34% fat) vs Fast, C3
[6] = 1200 mg single dose, Fed (50% fat) vs Fast, Study 20
[7] = 1200 mg/day x 7 days, Fed (34% fat) vs Fast, Study 27
[8] = 1200 mg/day, high fat (50%) meal on day 8 after 7 days with typical fat meals
[9] = 600 mg, 600 mg single dose, Fast, healthy adults, Study 12
[10] = 600 mg, 600 mg single dose, Fed 50% fat, healthy adults, Study 12
[11] = 600 mg/day, 600 mg/day x 7 days, Fast, healthy adults, historical Studies C-1073-05 and C-1073-300 Part II (reference for C3)
[12] = 600 mg/day, 600 mg/day x 7 days, Fed 34% fat, healthy adults, Cohort 3 of CORT-108297-102
[13] = 1200 mg, 1200 mg single dose, Fast, healthy adults, Study 20
[14] = 1200 mg, 1200 mg single dose, Fed 50% fat, healthy adults, Study 20
[15] = 1200 mg/day, 1200 mg/day x 7 days, Fed 34% fat, healthy adults, Study 27

In the case of CC#C[C@]1(O)CC[C@H]2[C@@H]3CCC4=CC(=O)CCC4=C3[C@@H](c3ccc(N(C)C)cc3)C[C@@]21C [Mifepristone, 17-beta-hydroxy-11-beta-(4-dimethyl-aminophenyl)-17-alpha-(1-propynyl)-estra-4,9-dien-3-one], the “difference in plasma drug concentration from one patient to another” value [1] is reported as no more than 800%, the “AUCinf Ratio of Geometric Means” value [2, 3] is reported as 1.29 and the “Cmax Ratio of Geometric Means” value [2, 3] is reported as 1.19. For the same compound, the “increase in AUC0-24 as compared to the same dose in the fasted state” value [2, 4] was 44%, the “increase in Cmax as compared to the same dose in the fasted state” value [2, 4] was 34% and the “AUC0-24 Ratio of Geometric Means” value [2, 5] was 1.44. The “Cmax Ratio of Geometric Means” value [2, 5] was 1.34, the “AUCinf Ratio of Geometric Means” value [2, 6] was 1.42 and the “Cmax Ratio of Geometric Means” value [2, 6] was 1.30. The “mean increase in mifepristone exposure relative to the fasted state” value ([2]; 1200 mg/day for 7 days with typical fat meals vs 7 days fasted) was 65%, the “Cmax Geo Mean” value ([2]; 1200 mg/day x 7 days, Fast, healthy adults, Study 27) was 3223 ng/mL and the “AUC0-24 Ratio of Geometric Means” value [2, 7] was 1.65. The “Cmax Ratio of Geometric Means” value [2, 7] was 1.56, the “effect on Cmax of switching to a high fat meal” value [2, 8] was “little or no effect” and the “effect on exposure of switching to a high fat meal” value [2, 8] was “little or no effect”. It also gave an AUC(0-inf) [2, 9] of 104 µg·h/mL, a Cmax [2, 9] of 2310 ng/mL and an AUC(0-inf) [2, 10] of 134 µg·h/mL. For the same compound, the Cmax [2, 10] was 2740 ng/mL, the AUC(0-t) [2, 11] was 43600 ng·h/mL and the Cmax [2, 11] was 3040 ng/mL. It also gave an AUC(0-t) [2, 12] of 62600 ng·h/mL, a Cmax [2, 12] of 4070 ng/mL and an AUC(0-inf) [2, 13] of 134 µg·h/mL. For the same compound, the Cmax [2, 13] was 2830 ng/mL, the AUC(0-inf) [2, 14] was 191 µg·h/mL and the Cmax [2, 14] was 3660 ng/mL. For the same compound, the AUC(0-t) ([2]; 1200 mg/day, 1200 mg/day x 7 days, Fast, healthy adults, Study 27) was 44200 ng·h/mL, the AUC(0-t) [2, 15] was 72800 ng·h/mL and the Cmax [2, 15] was 5040 ng/mL. For the same compound, the “dose proportionality of exposure and Cmax” value ([2]; multiple dosing, doses above 600 mg, fasted) was “strong lack of dose proportionality”.
